Legend:
Test in all cases: relative viability (nuclei count vs DMSO), 5 days (fraction); higher = more cells survive
[1] = compound: CC(C)(C)c1nc(-c2cccc(NS(=O)(=O)c3c(F)cccc3F)c2F)c(-c2ccnc(N)n2)s1 [Dabrafenib]
Method in brief: (§1)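 Viability was defined as treated-well nuclei divided by vehicle-well nuclei, with the median taken over replicate plates. Cells from lung cancer lines sat overnight at 37 °C in 1536-well plates, received five √10-spaced library-drug doses by pinning on vehicle-anchored plates, and grew 5 days without medium change before one-step fixation, permeabilisation and Hoechst staining, 4× imaging and MetaXpress nuclear counts. Only plates with control CV under 25% and at least one doubling were kept.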

[2] = compound: NC(=O)c1ccc(N(C(N)=O)c2c(F)cccc2F)nc1-c1ccc(F)cc1F [VX-702]
Method in brief: as §1

[3] = compound: CC(C)(C)c1nc(-c2cccc(NS(=O)(=O)c3c(F)cccc3F)c2F)c(-c2ccnc(N)n2)s1 [Dabrafenib] + CC1(C)CCC(c2ccc(Cl)cc2)=C(CN2CCN(c3ccc(C(=O)NS(=O)(=O)c4ccc(N[C@H](CCN5CCOCC5)CSc5ccccc5)c(S(=O)(=O)C(F)(F)F)c4)cc3)CC2)C1 [Navitoclax] (partner 0.5 µM)
Method in brief: (§2)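 Medians of duplicate plates are given as relative viability. That measure is the nuclei count in treated wells divided by the count in vehicle wells. Counts were taken on 4× images of lung cancer cell lines in 1536-well plates, 5 days after pin-tool dosing the day after seeding with one drug alone or a fixed anchor-drug dose plus five library-drug doses (not always all listed) in √10 steps.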

[4] = compound: CC(C)(C)c1nc(-c2cccc(NS(=O)(=O)c3c(F)cccc3F)c2F)c(-c2ccnc(N)n2)s1 [Dabrafenib] + COc1cc2c(Oc3ccc(NC(=O)C4(C(=O)Nc5ccc(F)cc5)CC4)cc3F)ccnc2cc1OCCCN1CCOCC1 [Foretinib] (partner 0.25 µM)
Method in brief: as §2

Cell Line	relative viability ([1]; 0.003 µM)	relative viability ([1]; 0.009487 µM)	relative viability ([1]; 0.03 µM)	relative viability ([1]; 0.09487 µM)	relative viability ([1]; 0.3 µM)	relative viability ([2]; 0.02 µM)	relative viability ([2]; 0.2 µM)	relative viability ([2]; 0.6325 µM)	relative viability ([2]; 2 µM)	relative viability ([3]; first compound 0.003 µM)	relative viability ([3]; first compound 0.009487 µM)	relative viability ([3]; first compound 0.03 µM)	relative viability ([3]; first compound 0.09487 µM)	relative viability ([3]; first compound 0.3 µM)	relative viability ([4]; first compound 0.009487 µM)	relative viability ([4]; first compound 0.03 µM)	relative viability ([4]; first compound 0.09487 µM)	relative viability ([4]; first compound 0.3 µM)	relative viability ([4]; first compound 0.003 µM)
HCC-44	0.885	0.971	1.01	0.921	0.933	1.05	0.979	1.08	1.05	0.939	1.04	0.939	0.843	1.04	–	–	–	–	–
HCC-78	–	1.03	0.932	0.816	1.05	0.947	0.878	0.98	1.07	–	0.908	0.702	0.795	0.869	0.633	0.537	0.632	0.581	–
HCC-366	0.734	1.04	0.725	0.993	1.11	1.06	0.969	0.98	0.587	–	1.02	0.963	1.05	1.11	0.944	0.812	0.875	0.891	0.894
HCC-827	0.916	1.08	0.996	–	1.02	1.03	1.08	1.09	0.647	0.997	1.02	0.97	1.01	1.01	1.04	0.876	–	1.03	1.11
HOP-62	0.778	1.02	1.03	0.685	0.812	1.06	0.988	1.09	1.05	0.89	1.01	1.02	0.718	1.02	1.1	1.16	0.969	1.12	1.12
IA-LM	1	0.84	0.984	0.58	0.405	0.956	0.896	0.92	1.04	0.901	0.657	0.649	0.304	0.172	1.08	1.08	0.977	1.13	1.13
LC-2-ad	0.79	1.08	1	0.892	1.06	1.04	1.01	1.05	1.06	0.558	0.425	0.381	0.417	0.438	1.09	0.82	0.922	1.1	–
LCLC-97TM1	–	0.914	1.01	0.508	0.756	0.938	0.982	0.996	0.937	–	0.368	0.536	–	0.427	0.99	0.972	0.864	0.953	0.938
LCLC-103H	0.883	1.11	0.919	1.01	1.07	0.98	0.999	0.952	1.13	–	–	–	–	–	0.791	0.737	0.804	0.849	0.762
LK-2	0.975	1.04	–	0.913	1.05	1.02	0.84	0.811	1.04	1.09	0.985	0.662	0.938	0.936	1.17	–	1.28	1.26	1.14
LOU-NH91	–	1.07	0.905	0.935	1.09	1	0.836	0.971	0.783	–	0.848	0.741	0.719	0.664	1.01	0.894	0.918	0.958	0.858
LU99A	0.968	1.06	0.917	0.88	0.801	1.05	0.912	1.02	0.781	0.928	0.722	0.792	0.896	0.753	0.702	0.715	0.756	0.79	0.942
NCI-H358	–	1.14	0.932	1.03	1.17	0.965	0.857	0.916	1.1	–	–	–	–	–	0.862	0.815	0.771	0.76	0.662
NCI-H522	–	1.2	1	0.97	1.07	0.989	0.982	0.928	0.992	–	–	–	–	–	–	–	–	–	–
NCI-H650	–	1.17	0.708	0.575	0.564	1.04	–	1.07	1.24	–	–	–	–	–	0.959	0.793	0.734	0.585	–
NCI-H661	0.988	0.967	0.94	0.986	0.958	1.02	0.98	1.04	1.1	–	–	–	–	–	0.983	0.97	1.01	1.01	1.01
NCI-H1563	0.971	1.01	0.815	0.988	1.04	0.991	1.06	0.976	1.07	–	–	–	–	–	0.981	0.824	1.04	1.01	0.856
NCI-H1623	–	0.969	0.924	1.03	1.13	0.834	0.943	1.02	0.905	–	–	–	–	–	0.869	0.846	0.829	1.12	–
NCI-H1648	1.02	0.861	0.814	1.12	1.17	0.926	0.877	0.688	0.63	–	–	–	–	–	–	–	–	–	–
NCI-H1792	–	0.915	0.877	0.679	0.806	0.763	0.87	0.866	1.05	–	0.61	0.608	0.568	0.557	–	–	–	–	–
NCI-H2342	0.864	0.988	0.856	1.06	1.1	0.987	1.07	0.903	1.09	–	–	–	–	–	1.18	0.954	1.09	1.2	1.04

— the supplement of paper PMC10307832
